Values of other authors as cited in patent US20130190388A1, “Methods and Compositions Related to DLK-1 and the P38 MAPK Pathway in Nerve Regeneration” (University of Utah Research Foundation, priority 2008, published 2013).

Legend:
[1] = tested on: Magellan (Phr-1) growth cone phenotype; settings: Phr-1 (Magellan) mutant neurons
adult DRG neurons = settings: inhibiting p38 signaling; reduced from about 65% without inhibitor

SMILES	growth cone phenotype (expanded region of disorganized microtubules) [1]	regeneration in vitro by adult DRG neurons (adult DRG neurons)
CC(=O)O[C@H]1C(=O)[C@@]2(C)[C@H]([C@H](OC(=O)c3ccccc3)[C@]3(O)C[C@H](OC(=O)[C@H](O)[C@@H](NC(=O)c4ccccc4)c4ccccc4)C(C)=C1C3(C)C)[C@]1(OC(C)=O)CO[C@@H]1C[C@@H]2O [Taxol]	rescued	
C[S+]([O-])c1ccc(-c2nc(-c3ccncc3)c(-c3ccc(F)cc3)[nH]2)cc1 (centres unmarked) [SB203580]		10%
